Laboratory results taken from patent US11878966B2, “Substituted 4-benzyl and 4-benzoyl piperidine derivates” (89BIO LTD, priority 2015, dated 2024).

These compounds were tested against T1, recombinant human baculovirus-expressed GST-tagged FASN (Homo sapiens, UniProt P49327) (assay: FASN enzyme activity assay: fluorescence-based detection of CoA with CPM). Conditions: 5 nM FASN, 150 μM NADPH, 10 μM acetyl-CoA, 25 μM malonyl-CoA, 90 minutes incubation.
T1 construct: GST; host or cells: baculovirus expression system (insect cells implied)
Format: biochemical
Source text: FASN Enzyme activity may be determined by detecting coenzyme A (CoA), a product of FASN-catalyzed synthesis of palmitate from acetyl-CoA and malonyl-CoA with NADPH as a cofactor. The assay is fluorescence-based and measures the interaction of free CoA with 7-diethylamino-3-(4′-malemimidylphenyl)-4-methylcoumarin (CPM; Life Technologies, CA) as described in Chung et al (2008). The coumarin derivative CPM contains a thiol-reactive maleimide that becomes fluorescent upon interaction with the sulfhydryl group of CoA.
For the example compounds described herein, the reaction was performed in 384-well low volume non-binding platews (Corning, NY) using recombinant human baculovirus-expressed GST-tagged FASN. The 20-μL assay mixture contained 50 mM HEPES (pH 7.5), 5 nM FASN, 150 μM NADPH (Sigma, St. Louis, MO), 10 μM acetyl-CoA (Sigma), 25 μM malonyl-CoA (Sigma) and test compound [diluted in dimethyl sulfoxide (DMSO); 0.5% DMSO final in assay after 100 nL addition]. See, Chung et al.; “A fluorescence-based thiol quantification assay for ultra-high-throughput screening for inhibitors of coenzyme A production,” Assay Drug Dev Tech 2008; 6:361-374.
The reaction was initiated by adding malonyl-CoA, followed by incubation for 90 minutes at […]. A stock solution of the CPM reagent was prepared in DMSO al 66 μM and stored at […]. To detect CoA produced in the FASN reaction, the CPM stock was diluted to 50 μM in 70% ethanol and added at 4 μL/well to the assay place. The reaction mixture was then incubated for 30 minutes. Fluorescence was measured using the EnVision™ 2102 multi-label plate reader (PerkinElmer, Waltham, MA) utilizing a general dual mirror, a 390 nm excitation filter and a 530 nm emission filter. Data analysis was performed using ActivityBase (IDBS, Guilford, UK). IC50 values were calculated by plotting the percent inhibition versus log 10 of the concentration of the compound, and fitting to the nonlinear regression sigmoidal dose-response (variable slope) equation in XLFit (IDBS).

T1 sequence (P49327 whole entry): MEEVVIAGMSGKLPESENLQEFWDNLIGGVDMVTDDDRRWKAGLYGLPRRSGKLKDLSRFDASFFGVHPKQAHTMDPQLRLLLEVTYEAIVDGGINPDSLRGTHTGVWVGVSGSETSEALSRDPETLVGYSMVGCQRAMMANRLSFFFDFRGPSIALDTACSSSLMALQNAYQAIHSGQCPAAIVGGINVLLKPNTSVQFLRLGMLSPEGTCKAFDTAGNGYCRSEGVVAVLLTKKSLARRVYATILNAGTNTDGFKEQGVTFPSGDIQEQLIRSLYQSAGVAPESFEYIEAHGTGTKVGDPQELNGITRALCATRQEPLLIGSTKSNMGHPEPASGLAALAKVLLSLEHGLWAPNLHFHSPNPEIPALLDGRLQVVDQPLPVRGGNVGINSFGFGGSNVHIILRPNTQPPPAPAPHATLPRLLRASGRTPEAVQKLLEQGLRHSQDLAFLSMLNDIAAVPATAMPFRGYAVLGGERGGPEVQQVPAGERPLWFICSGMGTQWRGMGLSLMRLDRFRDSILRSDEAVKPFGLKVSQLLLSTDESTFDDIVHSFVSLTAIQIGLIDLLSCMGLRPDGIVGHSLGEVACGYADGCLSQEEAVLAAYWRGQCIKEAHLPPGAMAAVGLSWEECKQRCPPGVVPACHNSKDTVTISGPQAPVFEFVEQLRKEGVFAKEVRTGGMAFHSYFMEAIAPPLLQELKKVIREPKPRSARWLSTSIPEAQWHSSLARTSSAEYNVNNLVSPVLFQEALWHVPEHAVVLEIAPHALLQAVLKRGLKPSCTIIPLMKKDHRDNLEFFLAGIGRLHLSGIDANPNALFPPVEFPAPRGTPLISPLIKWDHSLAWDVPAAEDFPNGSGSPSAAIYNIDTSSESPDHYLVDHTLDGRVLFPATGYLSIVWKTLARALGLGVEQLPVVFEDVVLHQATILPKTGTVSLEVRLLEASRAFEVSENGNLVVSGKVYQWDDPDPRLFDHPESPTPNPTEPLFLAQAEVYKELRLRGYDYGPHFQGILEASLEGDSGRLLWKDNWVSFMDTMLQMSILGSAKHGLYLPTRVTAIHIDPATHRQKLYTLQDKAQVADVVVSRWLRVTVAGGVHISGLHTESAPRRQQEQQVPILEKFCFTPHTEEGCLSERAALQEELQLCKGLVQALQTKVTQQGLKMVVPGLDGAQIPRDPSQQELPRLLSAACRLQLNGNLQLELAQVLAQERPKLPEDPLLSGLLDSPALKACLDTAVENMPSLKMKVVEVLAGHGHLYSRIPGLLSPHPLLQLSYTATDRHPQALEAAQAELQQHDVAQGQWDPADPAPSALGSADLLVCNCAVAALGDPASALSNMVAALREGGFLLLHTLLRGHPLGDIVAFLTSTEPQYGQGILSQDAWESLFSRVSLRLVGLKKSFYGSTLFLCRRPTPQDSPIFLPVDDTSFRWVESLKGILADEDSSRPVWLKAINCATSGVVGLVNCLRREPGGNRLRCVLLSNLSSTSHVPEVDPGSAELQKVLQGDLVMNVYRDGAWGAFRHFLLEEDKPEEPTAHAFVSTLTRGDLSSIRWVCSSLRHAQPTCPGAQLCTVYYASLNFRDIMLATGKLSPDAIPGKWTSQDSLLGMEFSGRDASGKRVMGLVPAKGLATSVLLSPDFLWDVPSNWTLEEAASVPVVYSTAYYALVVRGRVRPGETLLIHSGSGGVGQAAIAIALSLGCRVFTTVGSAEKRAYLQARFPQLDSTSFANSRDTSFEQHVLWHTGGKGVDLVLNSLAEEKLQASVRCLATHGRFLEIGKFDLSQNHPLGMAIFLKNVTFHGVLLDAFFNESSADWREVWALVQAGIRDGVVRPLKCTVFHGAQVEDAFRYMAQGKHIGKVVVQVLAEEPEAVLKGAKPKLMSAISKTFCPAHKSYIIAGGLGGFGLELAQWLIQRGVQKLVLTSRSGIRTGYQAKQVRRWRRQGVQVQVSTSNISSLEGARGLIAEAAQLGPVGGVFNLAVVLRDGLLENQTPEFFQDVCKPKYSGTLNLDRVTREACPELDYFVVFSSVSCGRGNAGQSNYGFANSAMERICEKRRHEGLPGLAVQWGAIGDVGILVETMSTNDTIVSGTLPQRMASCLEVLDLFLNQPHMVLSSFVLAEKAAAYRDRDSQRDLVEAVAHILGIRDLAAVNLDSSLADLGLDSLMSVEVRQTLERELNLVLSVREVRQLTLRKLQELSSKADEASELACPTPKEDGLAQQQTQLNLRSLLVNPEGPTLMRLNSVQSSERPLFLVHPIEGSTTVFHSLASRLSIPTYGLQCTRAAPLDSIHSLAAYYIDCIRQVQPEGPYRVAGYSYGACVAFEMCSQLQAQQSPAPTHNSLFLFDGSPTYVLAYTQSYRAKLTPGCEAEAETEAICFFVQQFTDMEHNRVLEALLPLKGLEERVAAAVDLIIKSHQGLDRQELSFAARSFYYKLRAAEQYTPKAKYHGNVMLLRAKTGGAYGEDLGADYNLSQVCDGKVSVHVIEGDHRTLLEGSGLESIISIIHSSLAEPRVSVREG

Structure (SMILES)	IC50 [nM]
Cc1c(-c2ccc(C(OCCCN3CCOCC3)C3CCN(C(=O)[C@H]4CCCO4)CC3)cc2)ccc2cccnc12 (stereo partly drawn) [Example 84, {4-[[4-(8-Methylquinolin-7-yl)-phenyl]-(3-morpholin-4-yl-propoxy)-methyl]-piperidin-1-yl}-(R)-tetrahydrofuran-2-yl-methanone]	1 to 99
O=C(C1CC1)N1CCC(C2(c3ccc(-c4ccc5ncccc5c4)cc3)OCCO2)CC1 [Example 99, Cyclopropyl-{4-[2-(4-quinolin-6-yl-phenyl)-1,3-dioxolan-2-yl]-piperidin-1-yl}-methanone]	1000 to 10000
CCC(=O)N1CCC(C2(c3ccc(-c4cnc5ccccc5c4)cc3)OCCO2)CC1 [Example 139, 1-{4-[2-(4-Quinolin-3-yl-phenyl)-1,3-dioxolan-2-yl]-piperidin-1-yl}-propan-1-one]	1 to 99
CCC(=O)N1CCC(F)(Cc2ccc(-c3ccc4cccnc4c3C)cc2)CC1 [Example 185, 1-(4-fluoro-4-(4-(8-methylquinolin-7-yl)benzyl)piperidin-1-yl)propan-1-one]	1 to 99
O=C(C1CCCO1)N1CC=C(Cc2ccc(-c3cnc4ccccc4c3)cc2)CC1 (stereo in doubt) [Example 190, (R)-(4-(4-(quinolin-3-yl)benzyl)-5,6-dihydropyridin-1(2H)-yl)(tetrahydrofuran-2-yl)methanone]	1 to 99
CCNC(=O)N1CCC(F)(Cc2ccc(-c3ccc4cccnc4c3C)cc2)CC1 [Example 228, N-ethyl-4-fluoro-4-[[4-(8-methyl-7-quinolyl)phenyl]methyl]piperidine-1-carboxamide]	1 to 99
Cc1c(-c2ccc(CC3(F)CCN(C(=O)[C@H]4CCCO4)CC3)cc2)cnc2ccccc12 [Example 181, (R)-(4-fluoro-4-(4-(4-methylquinolin-3-yl)benzyl)piperidin-1-yl)(tetrahydrofuran-2-yl)methanone]	1 to 99
O=C(C1CC(F)(F)C1)N1CCC(Cc2ccc(-c3cnc4ccccc4c3Cl)cc2)CC1 [Example 21, {4-[4-(4-Chloroquinolin-3-yl)-benzyl]-piperidin-1-yl}-(3,3-difluorocyclobutyl)-methanone]	1000 to 10000
CCC(=O)N1CCC(C(C)c2ccc(-c3ccc4cccnc4c3Cl)cc2)CC1 (stereo not drawn) [Example 72, 1-(4-{1-[4-(8-chloroquinolin-7-yl)-phenyl]-ethyl}-piperidin-1-yl)-propan-1-one]	1 to 99

The remaining lines, values ahead:

IC50 [nM]	Structure (SMILES)
1 to 99	COCCOC(c1ccc(-c2cnc3ccccc3c2C)cc1)C1CCN(C(=O)[C@H]2CCCO2)CC1 (stereo partly drawn) [Example 83, (4-{(2-Methoxyethoxy)-[4-(4-methyl-quinolin-3-yl)-phenyl]-methyl}-piperidin-1-yl)-(R)-tetrahydrofuran-2-yl-methanone]
100 to 999	CCOC(C)(c1ccc(-c2cnc3ccccc3c2)cc1)C1CCN(C(=O)C2CC2)CC1 (stereo not drawn) [Example 207, Cyclopropyl-{4-[1-ethoxy-1-(4-quinolin-3-yl-phenyl)-ethyl]-piperidin-1-yl}-methanone]
1 to 99	CC(c1ccc(-c2cnc3ccccc3c2Cl)cc1)C1CCN(C(=O)C2CC2)CC1 (stereo not drawn) [Example 76, (4-{1-[4-(4-Chloroquinolin-3-yl)-phenyl]-ethyl}-piperidin-1-yl)-cyclopropylmethanone]
1000 to 10000	O=C(C1CC1)N1CC=C(Cc2ccc(-c3ccc4occc4c3)cc2)CC1 [Example 180, (4-(4-(benzofuran-5-yl)benzyl)-5,6-dihydropyridin-1(2H)-yl)(cyclopropyl)methanone]
1000 to 10000	CN(C)Cc1ccc(-c2ccc(C3(C4CCN(C(=O)C5CC5)CC4)OCCO3)cc2)cc1 [Example 137, Cyclopropyl-{4-[2-(4′-dimethylaminomethyl-biphenyl-4-yl)-1,3-dioxolan-2-yl]-piperidin-1-yl}-methanone]
1 to 99	CCC(=O)N1CCC(C(C)c2ccc(-c3ccc4cccnc4c3OC)cc2)CC1 (stereo not drawn) [Example 64, 1-(4-{1-[4-(8-Methoxyquinolin-7-yl)-phenyl]-ethyl}-piperidin-1-yl)-propan-1-one]
